Measurements from the supplement of paper PMC10307832.

Tests used:
Assay in all cases: relative viability (nuclei count vs DMSO), 5 days (fraction); higher = more cells survive
AGI-6780 + Phenformin = compound: O=C(Nc1cccc(C(F)(F)F)c1)Nc1cc(S(=O)(=O)NC2CC2)ccc1-c1ccsc1 [AGI-6780] + N=C(N)NC(=N)NCCc1ccccc1 [Phenformin] (partner 250 µM)
How it was run: (§1)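 Cells from lung cancer lines were seeded into 1536-well plates and, one day later, dosed by pin tool. Treatments were either a single drug or a fixed dose of an anchor drug with five library-drug doses (not always all listed) in √10 steps. After 5 days, nuclei were stained in a one-step fixation (final 0.05% Triton X-100, 1% formaldehyde, 1 ug/ml Hoechst) and counted on 4× images, and relative viability is the treated-to-vehicle nuclei ratio, as the median of duplicate plates.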

AGI-6780 + Olaparib = compound: O=C(Nc1cccc(C(F)(F)F)c1)Nc1cc(S(=O)(=O)NC2CC2)ccc1-c1ccsc1 [AGI-6780] + O=C(c1cc(Cc2n[nH]c(=O)c3ccccc23)ccc1F)N1CCN(C(=O)C2CC2)CC1 [Olaparib] (partner 8 µM)
How it was run: as §1

AGI-6780 + Trametinib = compound: O=C(Nc1cccc(C(F)(F)F)c1)Nc1cc(S(=O)(=O)NC2CC2)ccc1-c1ccsc1 [AGI-6780] + CC(=O)Nc1cccc(-n2c(=O)n(C3CC3)c(=O)c3c(Nc4ccc(I)cc4F)n(C)c(=O)c(C)c32)c1 [Trametinib] (partner 0.02 µM)
How it was run: as §1

AGI-6780 = compound: O=C(Nc1cccc(C(F)(F)F)c1)Nc1cc(S(=O)(=O)NC2CC2)ccc1-c1ccsc1 [AGI-6780]
How it was run: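 Lung cancer cell lines in 1536-well plates were kept overnight at 37 °C, then pinned with five library-drug doses (not always all listed) spaced by √10 on vehicle-anchored plates. After 5 days without medium change, cells were fixed, permeabilised and Hoechst-stained in one step, imaged at 4×, and nuclei were counted with MetaXpress. Viability is treated-well nuclei divided by vehicle-well nuclei, taken as the median over plates. Plates passed only with control CV below 25% and at least one doubling.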

Cell Line	relative viability (AGI-6780 + Phenformin; first compound 0.253 µM)	relative viability (AGI-6780 + Phenformin; first compound 0.8 µM)	relative viability (AGI-6780 + Phenformin; first compound 2.53 µM)	relative viability (AGI-6780 + Phenformin; first compound 8 µM)	relative viability (AGI-6780 + Olaparib; first compound 0.08 µM)	relative viability (AGI-6780 + Olaparib; first compound 0.253 µM)	relative viability (AGI-6780 + Olaparib; first compound 0.8 µM)	relative viability (AGI-6780 + Olaparib; first compound 2.53 µM)	relative viability (AGI-6780 + Olaparib; first compound 8 µM)	relative viability (AGI-6780 + Trametinib; first compound 0.08 µM)	relative viability (AGI-6780 + Trametinib; first compound 0.253 µM)	relative viability (AGI-6780 + Trametinib; first compound 0.8 µM)	relative viability (AGI-6780 + Trametinib; first compound 2.53 µM)	relative viability (AGI-6780 + Trametinib; first compound 8 µM)	relative viability (AGI-6780; 0.08 µM)	relative viability (AGI-6780; 0.253 µM)	relative viability (AGI-6780; 0.8 µM)	relative viability (AGI-6780; 2.53 µM)	relative viability (AGI-6780; 8 µM)	relative viability (AGI-6780 + Phenformin; first compound 0.08 µM)
HCC-78	0.735	0.814	0.716	0.607	0.897	0.798	1.06	0.665	0.849	0.824	0.629	0.925	0.924	0.775	0.876	1.04	1.05	0.982	1.02	–
NCI-H520	0.699	0.743	0.431	0.622	0.33	0.376	0.31	0.322	0.331	0.652	0.628	0.58	0.593	0.666	1.11	1.04	1.09	0.819	1.04	0.733
UMC-11	0.344	0.336	–	0.365	0.393	0.38	0.4	–	0.434	0.657	0.708	0.812	–	0.902	0.95	0.955	1.2	–	1.13	0.336
NCI-H441	0.964	0.822	0.668	0.787	0.627	0.525	0.624	0.441	0.453	0.554	0.49	0.553	0.422	0.51	1.08	1.03	1.04	0.786	1.16	1.07
EMC-BAC-2	0.602	0.508	0.456	0.531	–	0.477	0.409	0.45	0.53	–	0.909	0.896	0.752	0.842	–	1.01	1.01	0.775	1.05	0.57
NCI-H1755	0.683	0.611	0.576	0.633	0.912	0.868	0.852	0.766	0.83	0.721	0.775	0.723	0.737	0.802	1.02	0.983	0.964	0.915	1	0.637
SW 900	0.737	0.673	0.597	0.809	0.741	0.826	0.923	0.878	0.803	1.01	0.832	0.915	0.688	1.18	0.858	0.868	1.08	0.901	0.935	0.547
NCI-H647	0.609	0.729	0.408	0.744	0.622	0.579	0.705	0.479	0.488	0.499	0.505	0.476	0.45	0.474	0.873	0.979	1.01	0.909	1.07	0.409
H3255	0.381	0.384	0.358	0.385	0.505	0.526	0.607	0.566	0.632	0.595	0.592	0.668	–	0.609	0.956	1.03	1.04	0.826	0.97	0.39
NCI-H596	0.876	0.758	–	0.752	0.749	0.765	0.704	0.625	0.791	0.841	0.712	0.655	0.652	0.777	0.96	0.954	0.87	0.724	1.12	0.739
NCI-H1915	0.371	0.369	0.374	0.376	0.25	0.292	0.258	0.208	0.26	0.314	0.304	0.298	0.246	0.274	1.02	0.995	1.01	0.994	1.05	0.37
NCI-H2009	0.426	0.496	0.518	0.47	0.643	0.745	0.67	0.644	0.625	0.264	0.272	0.243	0.202	0.225	0.968	1.03	0.94	1.1	1.05	0.432
NCI-H650	0.502	0.451	0.435	0.438	0.349	0.413	0.437	0.303	0.388	0.989	1.07	0.935	0.823	0.964	0.873	1.04	0.937	0.843	1.06	0.447
NCI-H1793	0.406	0.386	0.264	0.365	0.904	0.845	0.902	0.695	0.805	0.393	0.359	0.479	0.416	0.423	1.19	1.08	1.03	0.768	0.897	0.458
NCI-H1650	0.407	0.498	0.4	0.382	0.884	0.774	0.934	0.689	0.791	0.559	0.555	0.653	0.623	0.757	0.942	0.915	1.2	0.995	0.976	0.387
NCI-H1395	0.46	0.45	0.397	0.449	0.474	0.475	0.474	0.424	0.439	0.984	1.01	1.04	0.975	1.06	0.928	1	1.09	0.768	0.97	0.469
NCI-H1355	0.451	0.484	0.393	0.448	0.838	0.791	0.773	0.65	0.71	0.426	0.496	0.465	0.354	0.404	1.02	1.07	1.03	0.823	1	0.485
HOP-62	0.663	0.876	0.689	0.763	0.47	0.303	0.197	0.536	0.452	0.366	0.321	0.316	0.321	0.396	1.03	1.01	0.994	0.984	1.03	0.684
NCI-H23	0.747	0.766	0.719	0.784	0.302	0.271	0.288	0.354	0.349	0.394	0.39	0.375	0.272	0.494	0.927	1.11	0.9	0.796	1.16	0.822
NCI-H2170	0.459	0.631	0.422	0.403	0.589	0.587	0.67	–	0.59	1.03	0.881	0.997	–	0.863	0.988	1	0.909	–	0.975	0.413
EPLC-272H	0.341	0.243	0.28	0.274	0.748	0.827	0.633	0.732	0.942	0.285	0.328	0.291	0.254	0.312	0.774	1.15	1.12	0.807	0.927	–
NCI-H522	0.659	0.633	0.616	0.627	0.527	0.636	0.746	–	0.551	0.667	0.801	0.75	–	0.645	0.972	0.965	0.909	0.865	0.962	0.706
NCI-H2347	0.574	0.378	0.351	0.373	0.564	0.561	0.569	0.597	0.592	0.276	0.289	0.278	0.287	0.274	1.07	1.02	0.743	1.06	1.07	0.424
SW 1573	0.36	0.567	–	0.368	0.578	0.481	0.525	0.426	0.465	0.567	0.533	0.489	–	0.602	1.03	1.02	1.04	0.739	0.957	0.378
NCI-H358	0.317	0.438	0.35	0.394	0.692	0.64	0.834	0.452	0.636	0.139	0.174	0.132	0.112	0.136	1.1	0.911	0.95	0.794	0.916	0.363
LCLC-103H	0.305	0.338	0.33	0.375	0.762	0.755	0.716	0.688	0.721	0.678	0.709	0.643	0.644	0.696	1.05	1.08	0.963	0.861	0.941	0.311
HCC-366	0.667	0.589	0.321	0.682	0.369	0.38	0.364	0.258	0.426	0.395	0.375	0.365	0.156	0.301	1.01	1.08	1.01	0.96	1.02	0.615
